In US12358948B2, “Neurotensinergic agonists and methods of using same preventing or treating pain” (priority 2019, dated 2025):
“Also recorded” adds a separate entry of the source. Where a SMILES comes first, the peptide text is derived from it. Bridges are numbered along the chain shown (N, C = ends). [ ]: non-standard residue; d: D form. AllylGly = C=CC[C@H](N)C(=O)O

Tested on: ileum
Test: Ileum relaxation assay ex vivo
Set-up: species or system rat
Conditions: 10^−11 to 10^−5 M, after contraction with carbachol
Protocol: The functional ileum bioassay was carried out as described in detail elsewhere. (Van der Poorten, O., Van Den Hauwe, R., Eiselt, E., Betti, C., Guillemyn, K., Chung, N. N., Hall, F., Bihel, F., Schiller, P. W., Tourwé, D., Sarret, P., Gendron, L, . . . Ballet, S. (2017). X-Space Screening of Dermorphin-Based Tetrapeptides through Use of Constrained Arylazepinone and Quinolinone Scaffolds. ACS medicinal chemistry letters, 8(11), 1177-1182) Briefly, rats were euthanized, and 2 cm ileum segments were dissected out before removal of extraneous fat and connective tissue.
The ileum was then mounted under 0.5-g tension in a 10 mL organ bath containing warmed (37° C.) and oxygenated (95% O2, 5% CO2) Krebs solution (6.9 g/L NaCl, 0.145 g/L MgSO4, 2.1 g/L NaHCO3, 0.35 g/L KCl, 0.165 g/L KH2PO4, 1.98 g/L dextrose and 0.28 g/L CaCl2)). […] Contractions of the muscle were recorded via an isometric force transducer (159901A, Radnoti, Monrovia, CA, USA). […]
Each concentration of the compounds tested were followed by 2×15-min washout periods in Krebs solution to allow full relaxation. Dose-response curves were obtained with NT (8-13) (10^−11 to 10^−6) as standard for each ileum and for compound 34(10^−11 to 10^−5) and IC50 values were determined. […]
Data are expressed as mean±standard errors of the mean (SEM). […]

Compound: CC(C)C[C@H](NC(=O)[C@H](Cc1ccc(O)cc1)NC(=O)[C@@H]1CC=CC[C@H](N)C(=O)N[C@@H](CCCCN)C(=O)N[C@@H](CCCCN)C(=O)N1)C(=O)O [compound 34, c[G(All)KKG(All)]YL] (H-[AllylGly]KK[AllylGly]YL-OH; staple 1-4)
- Ileum relaxation: doesn't impact gut motility; also recorded: No ileum
